Patent US11865095B2, “Combination drug substance of polyamine transport inhibitor and DFMO” (Aminex Therapeutics, Inc., priority 2020, dated 2024)
pEC50: −log10 of the molar value. Like-named read-outs stand apart in the source and are kept apart here.

Columns and labels:
[1] = bioavailability / Biopharmaceutics Classification System class
[2] = mouse, in vivo
[3] = First-in-human clinical trial NCT03536728 Part 1: plasma pharmacokinetics and tolerability of oral AMXT 1501 dicaprate and DFMO
clinical = conditions: human, in vivo, po
in vivo = conditions: BALB/c, mouse, tumor, subcutaneous, 2.5 mg/kg
cancer cells = assay: in vitro EC50 against cancer cells; assay type: cell-based
water solubility = assay type: physicochemical

In the case of `CCCCCCCCCC(=O)O.CCCCCCCCCC(=O)O.CCCCCCCCCCCCCCCC(=O)NCCCC[C@@H](N)C(=O)NCCCNCCCCNCCCN` [AMXT 1501 dicaprate], the bioavailability [1] was “low”.
With `CCCCCCCCCCCCCCCC(=O)NCCCC[C@@H](N)C(=O)NCCCNCCCCNCCCN` [AMXT 1501, D-lys(palmitoyl)-spermine] the “AMXT 1501 tumor AUC” value [2] was 152,000 hr*ng/mL, the “duration of plasma levels” value ([3]; Cohort 5, over the 24-hour dosing time increment) was “sustained over the 24-hour dosing time increment” and the “adverse effects observed in patients” value ([3]; Part 1 patients, mainly gastrointestinal (nausea and diarrhea)) was “modest Grades 1 and 2 adverse effects”. For the same compound, the Cmax ([3]; human, in vivo) was under 1000 ng/mL, the “mean AMXT 1501 exposure versus dose” value ([3]; single or repeat PO dosing, dose levels of 160 mg AMXT 1501 and higher) was “increased in a dose-dependent manner” and the Cmax (clinical) was 794 ng/mL. It also gave a Kp (in vivo) of 14, an EC50 (cancer cells; equivalent of 50 nM, read-out: plasma concentration equivalent to in vitro EC50) of 0.028 µg/mL and a pEC50 (cancer cells; read-out: in vitro EC50 against cancer cells) of 7.30.
For `NCCCC(N)(C(=O)O)C(F)F` (centres unmarked) [DFMO, difluoromethylornithine], the water solubility (water solubility) was “high”.
